Test results as given in patent US5854252A, “Dihalotriazolopyrimidine derivatives” (Shell Internationale Research Maatschappij B.V., priority 1993, dated 1998).
Converted amounts (≈) assume the structure as drawn.

Tests used:
[1] = tested on: Pseudocercosporella herpotrichoides; assay: Activity against wheat eyespot in-vitro (PHI), Example 53(j); format: cell-based; conditions: 50 ppm, 12 days at 20° C.
Method: This test measures the in vitro activity of compounds against the fungus causing wheat eyespot. The test compound is dissolved or suspended in acetone and is added into 4 ml aliquots of half strength Potato Dextrose Broth dispensed in 25-compartment petri dishes to give a final concentration of 50 ppm compound and 2.5% acetone. Each compartment is inoculated with a 6 mm diameter plug of agar/mycelium taken from a 14 day old culture of P. herpotrichoides. Plates are incubated at 20° C. for 12 days until the assessment of mycelial growth. The extent of disease control in all the above tests is expressed as a rating compared with either an untreated control or a diluent-sprayed-control, according to the criteria: […]

Cercospora arachidicola = assay: Field pot test with Cercospora arachidicola on peanuts; format: in vivo; conditions: Mycosphaerella arachidis, topical, 360 h, 500 μg/ml spray, 1000 l/ha, 15 days after treatment, Abbott formula, read-out: % efficacy Cercospora arachidicola
Method: 15 Seeds of peanuts were sown in pots filled with a soil substrate. When the plants have developed 4 true leaves (approx. 12-14 days after seeding) the fungicides and the test compounds were applied using a hand sprayer. The test compounds were applied at a concentration of 500 μg/ml in a […] containing 10% acetone and 0.05% Triton X 155 in water. The total amount of […] corresponded to 1000 l/ha. Six replicates (pots) per treatment were used. 2 days after treatment the pots were exposed to peanut plants in the field on which the fungus, Cercospora arachidicola, had formed sporulating lesions. The assessment was carried out 15 days after treatment by estimating the percentage of infected leaf area. The % efficacy was calculated using the Abbott formula.

Gaeumannomyces graminis = assay: MIC by serial dilution, Example 55, Gaeumannomyces graminis; format: cell-based; conditions: microtitre plates, 20° C., 6-8 days
Method: (§1) The MIC (Minimum Inhibition Concentration)-values were determined by serial dilution tests using 48-well microtitre plates. The dilution of the test compounds in the nutrient solution and the distribution to the wells were carried out by a TECAN RSP 5000 robotic sample processor.
(§2) For preparation of the nutrient solution, V8 juice (Trade Mark) was neutralised with calcium carbonate and centrifuged. The supernatant was diluted with distilled water (1:5) to the final concentration.
(§3) The fungi (Alternaria solani, Botrytis cinerea, Pseudocercosporella herpotrichoides, Micronectriella nivalis, Gaeumannomyces graminis) were added into the wells as a droplet of spore suspension. The microtitre plates were then incubated at 20° C. for 6-8 days. The MIC-value, which was defined to be the lowest concentration in the dilution series without mycelial growth, was determined by visual inspection of the plates.

Puccinia arachidis = assay: Field pot test with Puccinia arachidis on peanuts; format: in vivo; conditions: topical, 456 h, 500 μg/ml spray, 1000 l/ha, 19 days after treatment, Abbott formula, read-out: % efficacy Puccinia arachidis
Method: 15 seeds of peanuts were sown in pots filled with a soil substrate. When the plants have developed 4 true leaves the fungicides and the test compounds were applied using a hand sprayer. The test compounds were applied at a concentration of 500 μg/ml in a […] containing 10% acetone and 0.05% Triton X 155 in water. The total amount of […] corresponded to 1000 l/ha. Six replicates per treatment were used. 2 Days after treatment the pots were exposed to peanut plants in the field on which the fungus, Puccinia arachidis, had formed sporulating pustules on the leaves. The assessment was carried out 19 days after treatment by estimating the percentage of infected leaf area. The % efficacy was calculated using the Abbott formula.

Micronectriella nivalis = assay: MIC by serial dilution, Example 55, Micronectriella nivalis; format: cell-based; conditions: microtitre plates, 20° C., 6-8 days
Method: as §1, §2, §3

[2] = tested on: Pseudocercosporella herpotrichoides; assay: MIC by serial dilution, Example 55, Pseudocercosporella herpotrichoides; format: cell-based; conditions: Oculimacula yallundae; microtitre plates, 20° C., 6-8 days
Method: as §1, §2, §3

Botrytis cinerea [3] = assay: MIC by serial dilution, Example 55, Botrytis cinerea; format: cell-based; conditions: microtitre plates, 20° C., 6-8 days
Method: as §1, §2, §3

Rhizoctonia solani = assay: MIC in the serial dilution test, Example 56, Rhizoctonia solani; format: cell-based; conditions: microtiter serial dilution, 6-12 days
Method: (§4) The serial dilution test was carried out using Microtiter test with 24 or 48 wells per plate. The test compounds were used a 1000 μg/ml aqueous stock suspension containing 20% acetone which was then sterile filtered in a 0.2μ filter. The dilution of the sterile fungicide suspension with the nutrient solution and the subsequent pipetting into the different wells was carried out using a TECAN RSP 5000 Robotic Sample Processor. The concentrations tested ranged from 100 μg/ml down to 0.05 μg/ml. 12 Dilution steps were made. The nutrient solution was chosen according to the nutrient requirements of the pathogen. The inoculum was added as a droplet (50 μl) of a spore suspension (5×10^8 /ml) into the wells. After 6-12 days incubation at suitable temperatures, the MIC value was determined by visual estimation. The lowest concentration in the dilution row without mycelial growth was defined as the MIC value.

Alternaria solani [4] = assay: MIC in the serial dilution test, Example 56, Alternaria solani; format: cell-based; conditions: microtiter serial dilution, 6-12 days
Method: as §4

Botrytis cinerea [5] = assay: MIC in the serial dilution test, Example 56, Botrytis cinerea; format: cell-based; conditions: microtiter serial dilution, 6-12 days
Method: as §4

Alternaria solani [6] = assay: MIC by serial dilution, Example 55, Alternaria solani; format: cell-based; conditions: microtitre plates, 20° C., 6-8 days
Method: as §1, §2, §3

Leptosphaeria nodorum = assay: Activity against wheat leafspot (LN), Example 53(f); format: in vivo; conditions: therapeutic foliar spray, 1000 ppm
Method: The test is a direct therapeutic one, using a foliar spray. Leaves of wheat plants (cv Norman), at the single leaf stage, are inoculated by spraying with an aqueous suspension containing 1×10^6 spores/ml. The inoculated plants are kept for 24 hours in a high humidity compartment prior to treatment. The plants are sprayed with a solution of the test compound at a dosage of 1000 ppm using an automated sprayline as described under (a). After drying, the plants are kept for 6-8 days at 22° C. and moderate humidity, followed by assessment. Assessment is based on the density of lesions per leaf compared with that on leaves of control plants. The extent of disease control in all the above tests is expressed as a rating compared with either an untreated control or a diluent-sprayed-control, according to the criteria: […]

Row | MIC (Gaeumannomyces graminis) | MIC (Micronectriella nivalis) | MIC [2] | Compound | Fungicidal Activity PHI (disease control rating) [1] | pest or weed control at 500 µg/mL (Cercospora arachidicola) | pest or weed control at 500 µg/mL (Puccinia arachidis) | other results
1 | 0.78 µg/mL (≈ 2.43 µM) | 0.39 µg/mL (≈ 1.21 µM) | 3.13 µg/mL (≈ 9.74 µM) | CC(C)(C)c1ccc(-c2c(Cl)nc3ncnn3c2Cl)cc1 [Example 36] | – | – | – | –
2 | 0.1 µg/mL (≈ 0.291 µM) | 6.25 µg/mL (≈ 18.2 µM) | 12.5 µg/mL (≈ 36.3 µM) | Clc1nc2ncnn2c(Cl)c1-c1ccc(Br)cc1 [Example 19] | 2 (greater than 80% disease control) | – | – | –

The next lines start with the compound.

Row | Compound | MIC (Gaeumannomyces graminis) | MIC (Micronectriella nivalis) | MIC [2] | Fungicidal Activity PHI (disease control rating) [1] | pest or weed control at 500 µg/mL (Cercospora arachidicola) | pest or weed control at 500 µg/mL (Puccinia arachidis) | other results
3 | Clc1nc2ncnn2c(Cl)c1-c1ccc2ccccc2c1 [Example 10] | – | – | – | 2 (greater than 80% disease control) | – | – | –
4 | Fc1ccc(-c2c(Cl)nc3ncnn3c2Cl)cc1 [Example 11] | 0.2 µg/mL (≈ 0.706 µM) | 0.39 µg/mL (≈ 1.38 µM) | 3.13 µg/mL (≈ 11.1 µM) | 2 (greater than 80% disease control) | 33% | 25% | –
5 | Clc1nc2ncnn2c(Cl)c1-c1ccc(Oc2ccccc2)cc1 [Example 12] | – | – | – | – | 67% | 33% | –
6 | COc1ccc(-c2c(Cl)nc3ncnn3c2Cl)cc1 [Example 38] | – | – | – | – | 42% | 42% | –
7 | CCOc1ccc(-c2c(Cl)nc3ncnn3c2Cl)cc1 [Example 3] | 0.2 µg/mL (≈ 0.647 µM) | 0.78 µg/mL (≈ 2.52 µM) | 6.25 µg/mL (≈ 20.2 µM) | – | – | – | –
8 | O=S(=O)(Cl)c1ccccc1-c1c(Cl)nc2ncnn2c1Cl [Example 6] | – | – | – | – | – | – | MIC (Botrytis cinerea [3]): > 100 µg/mL
9 | Clc1nc2ncnn2c(Cl)c1-c1cccc2ccccc12 [Example 23] | – | – | – | 1 (about 50-80% disease control) | – | – | –
10 | Cc1cccc(C)c1Oc1c(Cl)nc2ncnn2c1Cl [Example 48] | – | – | – | – | – | – | MIC (Rhizoctonia solani): > 100 µg/mL; MIC (Alternaria solani [4]): 25 µg/mL (≈ 80.9 µM); MIC (Botrytis cinerea [5]): > 100 µg/mL
11 | FC(F)(F)c1ccc(-c2c(Br)nc3ncnn3c2Br)cc1 [Example 42] | – | – | – | – | – | – | MIC (Alternaria solani [6]): > 100 µg/mL; MIC (Botrytis cinerea [3]): > 100 µg/mL
12 | Fc1cccc(Cl)c1-c1c(Br)nc2ncnn2c1Br [Example 41] | – | – | – | – | – | – | MIC (Alternaria solani [6]): 50 µg/mL (≈ 123 µM); MIC (Botrytis cinerea [3]): 25 µg/mL (≈ 61.5 µM)
13 | Cc1cccc(Oc2c(Cl)nc3ncnn3c2Cl)c1 [Example 49] | – | – | – | – | – | – | MIC (Rhizoctonia solani): > 100 µg/mL; MIC (Alternaria solani [4]): 25 µg/mL (≈ 84.7 µM); MIC (Botrytis cinerea [5]): 6.25 µg/mL (≈ 21.2 µM)
14 | Fc1ccccc1-c1c(Cl)nc2ncnn2c1Cl [Example 16] | – | – | – | 2 (greater than 80% disease control) | 50% | 42% | –
15 | Clc1nc2ncnn2c(Cl)c1-c1ccc(-c2ccccc2)cc1 [Example 13] | 0.39 µg/mL (≈ 1.14 µM) | 6.25 µg/mL (≈ 18.3 µM) | > 100 µg/mL | 2 (greater than 80% disease control) | – | – | –
16 | Clc1ccc(-c2c(Cl)nc3ncnn3c2Cl)cc1Cl [Example 25] | – | – | – | – | 25% | 42% | Fungicidal Activity LN (disease control rating) (Leptosphaeria nodorum): 1 (about 50-80% disease control)
